In patent US11998536B2, “Decreasing expression level of proteasome subunit genes by treating a human subject with a nitroxide” (priority 2018, dated 2024):

Experiments:
[1] = system: Psma2; experiment: Gene expression in Tempol-fed mice, chip-based microarray; assay type: in vivo; settings: white adipose tissue per table title (cardiac tissue per text)
Protocol: (§1) To assess the effects of Tempol on gene expression, Tempol was administered to experimental mice at a dose of 5 mg/g of food from 14 months to 31 months after birth. Mice receiving the same food without the addition of Tempol were used as a negative control. At the age of 31 months, the experimental animals were sacrificed and the hearts were surgically removed. The expression of a broad spectrum of genes in the cardiac tissue was assessed using chip-based microarray technology. Such chips are well known in the art and are widely used to assess gene expression.

[2] = system: Psma6; experiment: as above; assay type: in vivo; settings: white adipose tissue per table title (cardiac tissue per text)
Protocol: as §1

[3] = system: Psma7; experiment: as above; assay type: in vivo; settings: white adipose tissue per table title (cardiac tissue per text)
Protocol: as §1

[4] = system: Psmb4; experiment: as above; assay type: in vivo; settings: white adipose tissue per table title (cardiac tissue per text)
Protocol: as §1

[5] = system: Psmb5; experiment: as above; assay type: in vivo; settings: white adipose tissue per table title (cardiac tissue per text)
Protocol: as §1

[6] = system: Psmc2; experiment: as above; assay type: in vivo; settings: white adipose tissue per table title (cardiac tissue per text)
Protocol: as §1

[7] = system: Psmc3; experiment: as above; assay type: in vivo; settings: white adipose tissue per table title (cardiac tissue per text)
Protocol: as §1

[8] = system: Psmc4; experiment: as above; assay type: in vivo; settings: white adipose tissue per table title (cardiac tissue per text)
Protocol: as §1

[9] = system: Psmc6; experiment: as above; assay type: in vivo; settings: white adipose tissue per table title (cardiac tissue per text)
Protocol: as §1

[10] = system: Psmd12; experiment: as above; assay type: in vivo; settings: white adipose tissue per table title (cardiac tissue per text)
Protocol: as §1

[11] = system: Psmd13; experiment: as above; assay type: in vivo; settings: white adipose tissue per table title (cardiac tissue per text)
Protocol: as §1

[12] = system: Psmd14; experiment: as above; assay type: in vivo; settings: white adipose tissue per table title (cardiac tissue per text)
Protocol: as §1

[13] = system: Psmd3; experiment: as above; assay type: in vivo; settings: white adipose tissue per table title (cardiac tissue per text)
Protocol: as §1

[14] = system: Psmd4; experiment: as above; assay type: in vivo; settings: white adipose tissue per table title (cardiac tissue per text)
Protocol: as §1

[15] = system: Psmd9; experiment: as above; assay type: in vivo; settings: white adipose tissue per table title (cardiac tissue per text)
Protocol: as §1

[16] = system: Psme4; experiment: as above; assay type: in vivo; settings: white adipose tissue per table title (cardiac tissue per text)
Protocol: as §1

[17] = system: genes associated with proteasome activity; experiment: Gene expression in Tempol-fed mice, chip-based microarray (summary in text); assay type: in vivo; settings: Tempol 5 mg/g of food from 14 to 31 months; cardiac tissue; vs mice on same food without Tempol
Protocol: as §1

[18] = system: β5/β5i sites (chymotrypsin-like sites) of the proteasome; settings: cited from earlier work
[19] = target: β1 (caspase-like) sites of the proteasome (Homo sapiens, UniProt P28072); settings: relative to β5/β5i sites; cited from earlier work
[20] = target: β2 sites of the proteasome (Homo sapiens, UniProt Q99436); settings: under normal conditions; cited from earlier work
[21] = Tempol 5 mg/g of food from 14 to 31 months, microarray
[22] = Tempol-treated vs control mice, 5 mg/g of food from 14 to 31 months

CC1(C)CC(O)CC(C)(C)N1[O] [Tempol, 4-hydroxy-2,2,6,6-tetramethylpiperidine-1-oxyl]
Psma2 expression, Tempol-treated mice [1, 21]: 3123 | Psma2 fold change [1, 22]: −1.20 | Psma6 expression, Tempol-treated mice [2, 21]: 3467 | Psma6 fold change [2, 22]: −1.09 | Psma7 expression, Tempol-treated mice [3, 21]: 1513 | Psma7 fold change [3, 22]: −1.23 | Psmb4 expression, Tempol-treated mice [4, 21]: 3614 | Psmb4 fold change [4, 22]: −1.15 | Psmb5 expression, Tempol-treated mice [5, 21]: 1754 | Psmb5 fold change [5, 22]: −1.15 | Psmc2 expression, Tempol-treated mice [6, 21]: 2176 | Psmc2 fold change [6, 22]: −1.23 | Psmc3 expression, Tempol-treated mice [7, 21]: 1810 | Psmc3 fold change [7, 22]: −1.23 | Psmc4 expression, Tempol-treated mice [8, 21]: 1101 | Psmc4 fold change [8, 22]: −1.52 | Psmc6 expression, Tempol-treated mice [9, 21]: 1449 | Psmc6 fold change [9, 22]: −1.16 | Psmd12 expression, Tempol-treated mice [10, 21]: 1098 | Psmd12 fold change [10, 22]: −1.20 | Psmd13 expression, Tempol-treated mice [11, 21]: 1047 | Psmd13 fold change [11, 22]: −1.23 | Psmd14 expression, Tempol-treated mice [12, 21]: 2745 | Psmd14 fold change [12, 22]: −1.20 | Psmd3 expression, Tempol-treated mice [13, 21]: 1017 | Psmd3 fold change [13, 22]: −1.12 | Psmd4 expression, Tempol-treated mice [14, 21]: 2610 | Psmd4 fold change [14, 22]: −1.20 | Psmd9 expression, Tempol-treated mice [15, 21]: 310 | Psmd9 fold change [15, 22]: −1.18 | Psme4 expression, Tempol-treated mice [16, 21]: 1086 | Psme4 fold change [16, 22]: −1.16 | Change in expression of the 16 listed proteasome genes [17]: statistically significant decrease in expression

CC(C)C[C@H](NC(=O)[C@H](Cc1ccccc1)NC(=O)c1cnccn1)B(O)O [bortezomib]
Inhibition of β5/β5i sites [18]: high potency | Affinity for β1 sites, lower than for β5/β5i sites [19]: approximately 10 fold | Targeting of β2 sites [20]: not appreciably targeted
